This is an account of results in article PMC3949517 (Acta Crystallographica Section D: Biological Crystallography, 2014).

Test [1] concerns A17λ reactibody. The test is classed as binding, human. The following applies: for Kd: read-out: Kd (BiaCore affinity constant).
Test [2] deals with A17κ reactibody. In kind it is binding, human.
Test [3] has as its system A17 reactibody. The following applies: cited from earlier work.
In test [4] the test system is A17κ reactibody (FabA17κ). In kind it is biochemical, human.
Test [5] concerns A17λ reactibody (FabA17λ). In kind it is biochemical, human.
Test [6] relates to scFvA17. The test is classed as binding, human.
Test [7] concerns recombinant Fab reactibodies (FabA17κ, FabA17λ). In kind it is binding, human.
Test [8] deals with A17κ reactibody (FabA17κ). The test is classed as biochemical, human. This is another data set of the same source.
Test [9] has as its system A17κ reactibody (FabA17κ). The test is classed as biochemical, human. The source holds these as a separate data set.
Test [10] concerns A17λ reactibody (FabA17λ). In kind it is biochemical, human. This is another data set of the same source.
The target in test [11] is T1, pep50L, linear (reduced) synthetic peptide 50 (synthetic (phage library-derived), cysteine pairing not given here).
T1 construct: also called pep50 linear form; source: synthetic peptide
T1 chain: GACRNPWGLTCGAAGAEK(Biotin)-NH2
As to the kind of experiment: SPR; Biacore T200, SA sensor chip; biotinylated synthetic peptides immobilised, antibodies injected at a range of concentrations, 10 µl/min, 298 K; association and dissociation 300 s each; 1:1 binding model, affinity-analysis option. The note with it: both partners purified. For orientation: In SPR one partner is held on a chip, and binding of the other changes the refractive index at the surface.

The target in test [12] is T2, pep54L, linear (reduced) synthetic peptide 54 (synthetic (phage library-derived), cysteine pairing not given here).
T2 construct: also called pep54 linear form; source: synthetic peptide
T2 chain: GACPNPWGLLCGAAGAEK(Biotin)-NH2
The description is as above. The note with it: both partners purified.

Where “and” joins values, the source holds several entries; their conditions need not be identical. Identical values can stand only once. Bridge positions count the residues as written; N and C are the ends. Ends that are not written are not given here. Peptide text beside a SMILES is read from it. * marks the point of attachment. Biotin = O=C1N[C@H]2[C@H](CS[C@H]2CCCCC(=O)*)N1

By Kd is commonly meant the constant that tells how readily two partners part at equilibrium. Regarding `CC(C)C[C@@H]1NC(=O)CNC(=O)[C@H](Cc2c[nH]c3ccccc23)NC(=O)[C@@H]2CCCN2C(=O)[C@H](CC(N)=O)NC(=O)[C@H](CCCNC(=N)N)NC(=O)[C@@H](NC(=O)[C@H](C)NC(=O)CN)CSSC[C@@H](C(=O)NCC(=O)N[C@@H](C)C(=O)N[C@@H](C)C(=O)NCC(=O)N[C@@H](C)C(=O)N[C@@H](CCC(=O)O)C(=O)N[C@@H](CCCCNC(=O)CCCC[C@@H]2SC[C@@H]3NC(=O)N[C@@H]32)C(N)=O)NC(=O)[C@H]([C@@H](C)O)NC1=O` [50C] (H-GACRNPWGLTCGAAGAEK(Biotin)-NH2; disulfide 3-11), in [1], the “affinity (in words)” value is “high affinity”. Besides, in test [2], the “affinity (in words)” value was “high affinity” and the “binding activity of A17κ compared with A17λ (in words)” value was “A17κ was more active in binding either the linear or the cyclic form of pep50”. Besides, the Kd in [2] (read-out: Kd (BiaCore affinity constant)) is 0.9 µM.
Take `CC(C)C[C@H](NC(=O)CNC(=O)[C@H](Cc1c[nH]c2ccccc12)NC(=O)[C@@H]1CCCN1C(=O)[C@H](CC(N)=O)NC(=O)[C@H](CCCNC(=N)N)NC(=O)[C@H](CS)NC(=O)[C@H](C)NC(=O)CN)C(=O)N[C@H](C(=O)N[C@@H](CS)C(=O)NCC(=O)N[C@@H](C)C(=O)N[C@@H](C)C(=O)NCC(=O)N[C@@H](C)C(=O)N[C@@H](CCC(=O)O)C(=O)N[C@@H](CCCCNC(=O)CCCC[C@@H]1SC[C@@H]2NC(=O)N[C@@H]21)C(N)=O)[C@@H](C)O` [50L] (H-GACRNPWGLTCGAAGAEK(Biotin)-NH2): in [1], the “affinity (in words)” value is “high affinity” and the Kd amounted to 2.3 µM. Further, in [2], the “affinity (in words)” value was “high affinity” and the “binding activity of A17κ compared with A17λ (in words)” value was “A17κ was more active in binding either the linear or the cyclic form of pep50”.
Turning to `CC(C)C[C@@H]1NC(=O)CNC(=O)[C@H](Cc2c[nH]c3ccccc23)NC(=O)[C@@H]2CCCN2C(=O)[C@H](CC(N)=O)NC(=O)[C@@H]2CCCN2C(=O)[C@@H](NC(=O)[C@H](C)NC(=O)CN)CSSC[C@@H](C(=O)NCC(=O)N[C@@H](C)C(=O)N[C@@H](C)C(=O)NCC(=O)N[C@@H](C)C(=O)N[C@@H](CCC(=O)O)C(=O)N[C@@H](CCCCNC(=O)CCCC[C@@H]2SC[C@@H]3NC(=O)N[C@@H]32)C(N)=O)NC(=O)[C@H](CC(C)C)NC1=O` [54C] (H-GACPNPWGLLCGAAGAEK(Biotin)-NH2; disulfide 3-11), the “binding activity of A17λ compared with A17κ (in words)” value in [1] is “A17λ was more active than A17κ”.
`CC(C)C[C@H](NC(=O)CNC(=O)[C@H](Cc1c[nH]c2ccccc12)NC(=O)[C@@H]1CCCN1C(=O)[C@H](CC(N)=O)NC(=O)[C@@H]1CCCN1C(=O)[C@H](CS)NC(=O)[C@H](C)NC(=O)CN)C(=O)N[C@@H](CC(C)C)C(=O)N[C@@H](CS)C(=O)NCC(=O)N[C@@H](C)C(=O)N[C@@H](C)C(=O)NCC(=O)N[C@@H](C)C(=O)N[C@@H](CCC(=O)O)C(=O)N[C@@H](CCCCNC(=O)CCCC[C@@H]1SC[C@@H]2NC(=O)N[C@@H]21)C(N)=O` [54L] (H-GACPNPWGLLCGAAGAEK(Biotin)-NH2): the Kd in test [1] amounted to 18 µM.
As for `CCOP(=O)(OCC)Oc1ccc([N+](=O)[O-])cc1` [paraoxon, O,O-Diethyl O-(4-nitrophenyl)phosphate], in test [3], the “reaction with A17 reactibody (in words)” value is recorded as “hydrolyzing”. The “k2/KD, paraoxon” value is reported as 1.15 ± 0.52 M–1 min–1 in test [4] and 1.63 ± 0.65 M–1 min–1 in [5]. In addition, the “k2/Kd, paraoxon” value in test [4] (pH 7.4) is 1.2 0.5 M ^1min^1; in test [5] (pH 7.4), 1.6 0.6 M ^1min^1.
With “CPNPWGLLC (disulfide 1-9 (inferred)) [pep54]”, in test [6], the “binding to scFvA17 (in words)” value is “specifically bind” and the “effect of phosphonylation of scFv on ELISA signals (in words)” value is “significantly enhanced the ELISA signals”. Further, in test [7], the “binding by recombinant Fab reactibodies (in words)” value is given as “capable of binding” and the “effect of phosphonylation of the Fabs on level of binding (in words)” value is listed as “reduced the level of binding”.
In the case of “CRNPWGLTC (disulfide 1-9 (inferred)) [pep50]”, in test [6], the “binding to scFvA17 (in words)” value is “specifically bind” and the “effect of phosphonylation of scFv on ELISA signals (in words)” value is recorded as “significantly enhanced the ELISA signals”. Also, in test [7], the “binding by recombinant Fab reactibodies (in words)” value is “capable of binding” and the “effect of phosphonylation of the Fabs on level of binding (in words)” value is listed as “reduced the level of binding”.
In the case of “p-nitrophenyl 8-methyl-8-azabicyclo[3.2.1]octylphenylphosphonate [phosphonate X]”, the “rate of induced-fit stage, A17κ vs A17λ (in words)” value in test [8] is reported as “induced-fit stage is more rapid in the κ variant”. For the same molecule, the “reaction with A17 reactibody (in words)” value in test [3] is “irreversibly binding”. The “Ea (activation-energy parameter), phosphonate X” value is listed as 12.5 1.3 kcalmol^1 in test [9] and 11.4 0.5 kcalmol^1 in test [10]. For the same molecule, the Kd in test [9] (pH 7.4) was 120 µM and 150 µM and 80 µM and 130 µM; in test [10] (pH 7.4) it was 110 µM and 145 µM and 170 µM and 130 µM and 180 µM. Also, the results for the “k2, phosphonate X” value in test [9] (pH 7.4) and in test [10] (pH 7.4) were 0.24 0.03 min^1 and 0.28 0.02 min^1, respectively.

B1: FabA17λ (Fab of the A17 reactibody with the λ light-chain constant domain) (Fab, V domains shown)
VH: QVQLQESGPGLVKPSETLSLTCAVSGYSISSGYYWGWIRQPPGKGLEWIGSIYHSGSTYYNPSLKSRVTISVDTSKNQFSLKLSSVTAADTAVYYCAGLTQSSHNDANWGQGTLVTVSS
VL: QSVLTQPPSVSAAPGQKVTISCSGSSSNIGNNYVSWYQQLPGTAPKLLIYDNNKRPSGIPDRFSGSKSGTSATLGITGLQTGDEADYYCGTWDSSLNPVFGGGTKLTVL
notes: as the heavy chain of m1 (HCH: A17 VH, human CH1, hinge region); natural-type λ light chain: A17 VL (identical to the VL of m1) with the J2 segment and the constant region of human λ2 light chain; also called FabA17 λ variant; source: Pichia pastoris GS115, culture medium, purified (Talon, Mono Q, Superdex 75)
As for B1, the Kd is 2.3 µM in test [11] and 18 µM in test [12].
